From patent US8163771B2, “11 β-HSD1 modulators” (Exelixis, Inc., priority 2008, dated 2012)

Molecular target: T1, recombinant human 11 β-HSD1 (Homo sapiens, UniProt P28845)
T1 construct: made in house; host or cells: E. coli
Test: 11 β-HSD1 SPA Assay (Scintillation Proximity Assay)
Assay type: biochemical
In short: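 Scintillation proximity read-out of cortisol formed from 40 nM [3H]cortisone by purified recombinant human enzyme (30-100 nM, E. coli) with 1 mM NADPH, pH7.4, 2 hours at room temperature; beads with cortisol antibody and glycyrrhetinic acid stop the reaction, read next day. IC50 derived from inhibition normalised to background and maximal wells.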

T1 sequence (P28845 whole entry): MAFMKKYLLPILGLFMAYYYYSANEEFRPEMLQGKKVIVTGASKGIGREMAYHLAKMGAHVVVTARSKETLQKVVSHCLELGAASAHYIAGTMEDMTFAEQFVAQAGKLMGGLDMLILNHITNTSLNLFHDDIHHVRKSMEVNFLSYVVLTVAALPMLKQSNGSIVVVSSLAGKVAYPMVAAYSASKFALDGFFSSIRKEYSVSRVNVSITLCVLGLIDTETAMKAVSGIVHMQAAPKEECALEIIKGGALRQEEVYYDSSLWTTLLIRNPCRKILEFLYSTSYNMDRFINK

| Structure (SMILES) | IC50 |
| --- | --- |
| CC(C)(Oc1ccc(Cl)cc1OC(F)(F)F)C(=O)NC1CC2CCC(C1)N2c1ccc(C(=O)N2CCC[C@H]2CO)cn1 (stereo partly drawn) [Example 455, 2-[4-chloro-2-(trifluoromethoxy)phenoxy]-n-[8-(5-{[(2s)-2-(hydroxymethyl)pyrrolidin-1-yl]carbonyl}pyridin-2-yl)-8-azabicyclo[3.2.1]oct-3-endo-yl]-2-methylpropanamide] | < 200 nM |
| CC(C)(Oc1cc(F)ccc1C(F)(F)F)C(=O)N[C@H]1C[C@H]2CC[C@@H](C1)N2c1ccc(S(C)(=O)=O)cn1 [Example 267, 2-{[5-fluoro-2-(trifluoromethyl)phenyl]oxy}-2-methyl-N-{8-[5-(methylsulfonyl)pyridin-2-yl]-8-azabicyclo[3.2.1]oct-3-endo-yl}propanamide] | < 200 nM |
| C[C@H](NC(=O)c1ccc(N2C3CCC2CC(NC(=O)C(C)(C)Oc2ccc(Cl)cc2OC(F)(F)F)C3)nc1)C(F)(F)F (stereo partly drawn) [Example 410, 6-(3-endo-(2-(4-chloro-2-(trifluoromethoxy)phenoxy)-2-methylpropanamido)-8-azabicyclo[3.2.1]octan-8-yl)-N-((S)-1,1,1-trifluoropropan-2-yl)nicotinamide] | < 200 nM |
| C[C@H](NC(=O)c1ccc(N2C3CCC2CC(NC(=O)C(C)(C)Oc2ncc(F)cc2C(F)F)C3)nc1)C(F)(F)F (stereo partly drawn) [Example 439, 6-{3-endo-[(2-{[3-(difluoromethyl)-5-fluoropyridin-2-yl]oxy}-2-methylpropanoyl)amino]-8-azabicyclo[3.2.1]oct-8-yl}-N-[(2S)-1,1,1-trifluoropropan-2-yl]pyridine-3-carboxamide] | < 2000 nM |
| CC(C)(Oc1ccc(Cl)cc1Cl)C(=O)N[C@H]1C[C@H]2CC[C@@H](C1)N2c1ccc(C(=O)NCC(F)(F)F)cc1Cl [Example 117, 3-chloro-4-[3-endo-({2-[(2,4-dichlorophenyl)oxy]-2-methylpropanoyl}amino)-8-azabicyclo[3.2.1]oct-8-yl]-N-(2,2,2-trifluoroethyl)benzamide] | < 200 nM |
| CC(C)(Oc1cc(OCCO)c(Cl)cc1Cl)C(=O)N[C@H]1C[C@H]2CC[C@@H](C1)N2c1ccc(C(=O)NCC(F)(F)F)cn1 [Example 361, 6-[3-endo-({2-[2,4-dichloro-5-(2-hydroxyethoxy)phenoxy]-2-methylpropanoyl}amino)-8-azabicyclo[3.2.1]oct-8-yl]-N-(2,2,2-trifluoroethyl)pyridine-3-carboxamide] | < 200 nM |
| C[C@H](NC(=O)c1ccc(N2C3CCC2CC(NC(=O)C(C)(C)Oc2ccc(Cl)cc2S(C)(=O)=O)C3)nc1)C(F)(F)F (stereo partly drawn) [Example 432, 6-[3-endo-({2-[4-chloro-2-(methylsulfonyl)phenoxy]-2-methylpropanoyl}amino)-8-azabicyclo[3.2.1]oct-8-yl]-N-[(2S)-1,1,1-trifluoropropan-2-yl]pyridine-3-carboxamide] | < 2000 nM |
| O=C(NC1CC1)c1ccc(N2[C@@H]3CC[C@H]2C[C@@H](NC(=O)C2(c4cccc(Cl)c4)CC2)C3)nc1 [Example 16, 6-[3-endo-({[1-(3-chlorophenyl)cyclopropyl]carbonyl}amino)-8-azabicyclo[3.2.1]oct-8-yl]-N-cyclopropylpyridine-3-carboxamide] | < 200 nM |
| COc1ccc(OC(C)(C)C(=O)N[C@H]2C[C@H]3CC[C@@H](C2)N3c2ccc(S(C)(=O)=O)cc2)cc1 [Example 182, 2-methyl-2-{[4-(methyloxy)phenyl]oxy}-N-{8-[4-(methylsulfonyl)phenyl]-8-azabicyclo[3.2.1]oct-3-endo-yl}propanamide] | < 2000 nM |
| CC(C)(Oc1cc(F)c(Cl)cc1Cl)C(=O)N[C@H]1C[C@H]2CC[C@@H](C1)N2c1ccc(C(=O)NC2CC2)cn1 [Example 91, N-cyclopropyl-6-[3-endo-({2-[(2,4-dichloro-5-fluorophenyl)oxy]-2-methylpropanoyl}amino)-8-azabicyclo[3.2.1]oct-8-yl]pyridine-3-carboxamide] | < 200 nM |
| CC(C)(Oc1ccc(Cl)cc1Cl)C(=O)N[C@H]1C[C@H]2CC[C@@H](C1)N2c1ccc(C(=O)NC2(CO)CC2)cn1 [Example 384, 6-(3-endo-{[2-(2,4-dichlorophenoxy)-2-methylpropanoyl]amino}-8-azabicyclo[3.2.1]oct-8-yl)-N-[1-(hydroxymethyl)cyclopropyl] pyridine-3-carboxamide] | < 200 nM |
| CC(C)(Oc1ccc(Cl)cc1C1CCCCC1)C(=O)N[C@H]1C[C@H]2CC[C@@H](C1)N2c1ccc(C(N)=O)cn1 [Example 285, 6-[3-endo-({2-[(4-chloro-2-cyclohexylphenyl)oxy]-2-methylpropanoyl}amino)-8-azabicyclo[3.2.1]oct-8-yl]pyridine-3-carboxamide] | < 200 nM |
| CC(C)(Oc1ccc(F)c(F)c1)C(=O)N[C@H]1C[C@H]2CC[C@@H](C1)N2c1ccc(S(N)(=O)=O)cn1 [Example 208, N-{8-[5-(aminosulfonyl)pyridin-2-yl]-8-azabicyclo[3.2.1]oct-3-endo-yl}-2-[(3,4-difluorophenyl)oxy]-2-methylpropanamide] | < 2000 nM |
| CC(C)(Oc1cc(Cl)ccc1Cl)C(=O)N[C@H]1C[C@H]2CC[C@@H](C1)N2c1ccc(C(=O)NCC(F)(F)F)cn1 [Example 72, 6-[3-endo-({2-[(2,5-dichlorophenyl)oxy]-2-methylpropanoyl}amino)-8-azabicyclo[3.2.1]oct-8-yl]-N-(2,2,2-trifluoroethyl)pyridine-3-carboxamide] | < 200 nM |
| Cc1ccc(C2(C(=O)N[C@H]3C[C@H]4CC[C@@H](C3)N4c3ccc(C(=O)NC4CC4)cn3)CC2)cc1 [Example 23, N-cyclopropyl-6-[3-endo-({[1-(4-methylphenyl)cyclopropyl]carbonyl}amino)-8-azabicyclo[3.2.1]oct-8-yl]pyridine-3-carboxamide] | < 200 nM |
| CC(C)(Oc1ccc(C(F)(F)F)cc1)C(=O)N[C@H]1C[C@H]2CC[C@@H](C1)N2c1ccc(C(=O)NCC(F)(F)F)cn1 [Example 111, 6-{3-endo-[(2-methyl-2-{[4-(trifluoromethyl)phenyl]oxy}propanoyl)amino]-8-azabicyclo[3.2.1]oct-8-yl}-N-(2,2,2-trifluoroethyl)pyridine-3-carboxamide] | < 200 nM |
| CC(C)(C(=O)N[C@H]1C[C@H]2CC[C@@H](C1)N2c1ccc(S(C)(=O)=O)cn1)S(=O)(=O)c1ccc(Cl)cc1Cl [Example 308, 2-[(2,4-dichlorophenyl)sulfonyl]-2-methyl-N-{8-[5-(methylsulfonyl)pyridin-2-yl]-8-azabicyclo[3.2.1]oct-3-endo-yl}propanamide] | < 2000 nM |
| CC(C)(Oc1cc(Cl)c(F)cc1Cl)C(=O)N[C@H]1C[C@H]2CC[C@@H](C1)N2c1ccc(S(C)(=O)=O)cn1 [Example 154, 2-[(2,5-dichloro-4-fluorophenyl)oxy]-2-methyl-N-{8-[5-(methylsulfonyl)pyridin-2-yl]-8-azabicyclo[3.2.1]oct-3-endo-yl}propanamide] | < 200 nM |
| CC(C)(Oc1ncc(Cl)cc1Cl)C(=O)NC1CC2CCC(C1)N2c1ccc(C(=O)NC2CC2(F)F)cn1 (stereo not drawn) [Example 399, 6-(3-endo-(2-(3,5-dichloropyridin-2-yloxy)-2-methylpropanamido)-8-azabicyclo[3.2.1]octan-8-yl)-N-(2,2-difluorocyclopropyl) nicotinamide] | < 200 nM |
| CC(C)(Oc1ccc(Cl)cc1S(C)(=O)=O)C(=O)N[C@H]1C[C@H]2CC[C@@H](C1)N2c1ccc(S(N)(=O)=O)cn1 [Example 293, N-{8-[5-(aminosulfonyl)pyridin-2-yl]-8-azabicyclo[3.2.1]oct-3-endo-yl}-2-{[4-chloro-2-(methylsulfonyl)phenyl]oxy}-2-methylpropanamide] | < 2000 nM |
| CC(C)(Oc1cc(F)c(F)cc1F)C(=O)N[C@H]1C[C@H]2CC[C@@H](C1)N2c1ccc(S(N)(=O)=O)cn1 [Example 216, N-{8-[5-(aminosulfonyl)pyridin-2-yl]-8-azabicyclo[3.2.1]oct-3-endo-yl}-2-methyl-2-[(2,4,5-trifluorophenyl)oxy]propanamide] | < 200 nM |
| CC(C)(Oc1cc(C(C)(C)O)c(Cl)cc1Cl)C(=O)N[C@H]1C[C@H]2CC[C@@H](C1)N2c1ccc(C(N)=O)cn1 [Example 473, 6-[3-endo-({2-[2,4-dichloro-5-(2-hydroxypropan-2-yl)phenoxy]-2-methylpropanoyl}amino)-8-azabicyclo[3.2.1]oct-8-yl]pyridine-3-carboxamide] | < 200 nM |
| CC(C)(Oc1ccc(Cl)cc1)C(=O)N[C@H]1C[C@H]2CC[C@@H](C1)N2c1ccc(S(C)(=O)=O)cc1 [Example 203, 2-[(4-chlorophenyl)oxy]-2-methyl-N-{8-[4-(methylsulfonyl)phenyl]-8-azabicyclo[3.2.1]oct-3-endo-yl}propanamide] | < 2000 nM |
| CC(C)(Oc1ccc(F)cc1Cl)C(=O)N[C@H]1C[C@H]2CC[C@@H](C1)N2c1ccc(S(C)(=O)=O)cc1 [Example 173, 2-[(2-chloro-4-fluorophenyl)oxy]-2-methyl-N-{8-[4-(methylsulfonyl)phenyl]-8-azabicyclo[3.2.1]oct-3-endo-yl}propanamide] | < 200 nM |
| CC(C)(Oc1ccnc2ccccc12)C(=O)N[C@H]1C[C@H]2CC[C@@H](C1)N2c1ccc(C(N)=O)cn1 [Example 318, 6-(3-endo-{[2-methyl-2-(quinolin-4-yloxy)propanoyl]amino}-8-azabicyclo[3.2.1]oct-8-yl)pyridine-3-carboxamide] | < 200 nM |
| CC(C)(Oc1ccc(F)cc1Cl)C(=O)N[C@H]1C[C@H]2CC[C@@H](C1)N2c1ccc(C(=O)NCC(F)(F)F)cn1 [Example 52, 6-[3-endo-({2-[(2-chloro-4-fluorophenyl)oxy]-2-methylpropanoyl}amino)-8-azabicyclo[3.2.1]oct-8-yl]-N-(2,2,2-trifluoroethyl)pyridine-3-carboxamide] | < 200 nM |
| CC(C)(Oc1ccc(Cl)cc1C(F)F)C(=O)NC1CC2CCC(C1)N2c1ccc(C(=O)NCC(O)C(F)(F)F)cn1 (stereo not drawn) [Example 449, 6-[3-endo-({2-[4-chloro-2-(difluoromethyl)phenoxy]-2-methylpropanoyl}amino)-8-azabicyclo[3.2.1]oct-8-yl]-N-(3,3,3-trifluoro-2-hydroxypropyl)pyridine-3-carboxamide] | < 200 nM |
